Data: US20240009174A1, “METHODS FOR DISRUPTING MITOCHONDRIAL UNFOLDED PROTEIN RESPONSE” (Health Research, Inc., priority 2020, published 2024)

Experiments:
Format in all cases: cell-based
HSP60-ClpP interaction [1] = target: T1, HSP60-ClpP interaction (Homo sapiens, UniProt P10809); assay: HSP60-ClpP co-immunoprecipitation assay in PCa cells; conditions: LNCaP and PC-3 cells, 24 hours
T1 construct: endogenous in cells
Protocol: FIG. 6. Pharmacological inhibition of HSP60-ClpP interaction induces UPR^mt and PCa cell death. (A) Docking of DCEM1 into apical domain of HSP60. (B) LNCaP and PC-3 cells were treated with DCEM1 for 24 hours and HSP60-ClpP interaction was analyzed by co-immunoprecipitation assay. (C) LNCaP and PC-3 cells were treated with DCEM1 for 24 hours and mitoROS levels were analyzed by flow cytometry using mitoSOX dye. (D) LNCaP and PC-3 cells were treated with DCEM1 for 24 hours and poly-Ub protein levels were analyzed by western blotting. (E) LNCaP and PC-3 cells were treated with DCEM1 for 24 and 48 hours and apoptotic cell populations were analyzed by flow cytometry using Annexin V FITC/PI method as explained in materials and methods. In (E) top panel, the bars in each series from left to right are control, 5, 10, and 20, and in (E) bottom panel, the bars in each series from left to right are DMSO, 5, 10, and 20. (F) LNCaP and PC-3 cells were treated with DCEM1 for 24 and 48 hours and lysates were prepared and analyzed for DEVDase activity using specific peptide substrate. […] (G) LNCaP and PC-3 cells were pre-treated with SKQ1 followed by DCEM1 treatment and analyzed for cell viability by MTT assay. (H) LNCaP and PC-3 cells were treated with either DCEM1 or H2O2 (200 μM) for 24 hours and total DNA were isolated and analyzed for mtDNA damage as described in materials and methods. […]

HSP60-ClpP interaction [2] = target: T1, HSP60-ClpP interaction; assay: Proximity ligation assay (PLA) of HSP60-ClpP in PCa cells; conditions: data not shown
Protocol: Identification of novel inhibitor of HSP60-ClpP interaction that disrupts UPR^mt function and induces PCa cell death. Having shown that two arms of UPR^mt, HSP60 chaperonin and ClpP protease interact and play critical role in PCa cell survival, an in silico analysis was performed and a small molecule library (developed by Enamine Ltd) was screened to identify drugs targeting the apical domain of HSP60 critical for its interaction with ClpP. 9 compounds (A-I) were identified and screened for their cell death inducing potential in PCa cells (data not shown). […] Colony forming ability of PCa cells was inhibited by DCEM1 treatment (data not shown).

LNCaP and PC-3 cells [3] = assay: mitoROS by flow cytometry using mitoSOX dye
Protocol: FIG. 6. Pharmacological inhibition of HSP60-ClpP interaction induces UPR^mt and PCa cell death. (A) Docking of DCEM1 into apical domain of HSP60. (B) LNCaP and PC-3 cells were treated with DCEM1 for 24 hours and HSP60-ClpP interaction was analyzed by co-immunoprecipitation assay. (C) LNCaP and PC-3 cells were treated with DCEM1 for 24 hours and mitoROS levels were analyzed by flow cytometry using mitoSOX dye. (D) LNCaP and PC-3 cells were treated with DCEM1 for 24 hours and poly-Ub protein levels were analyzed by western blotting. (E) LNCaP and PC-3 cells were treated with DCEM1 for 24 and 48 hours and apoptotic cell populations were analyzed by flow cytometry using Annexin V FITC/PI method as explained in materials and methods. In (E) top panel, the bars in each series from left to right are control, 5, 10, and 20, and in (E) bottom panel, the bars in each series from left to right are DMSO, 5, 10, and 20. (F) LNCaP and PC-3 cells were treated with DCEM1 for 24 and 48 hours and lysates were prepared and analyzed for DEVDase activity using specific peptide substrate. In (F), the bars in each series from left to right are DMSO, 5, 10, and 20. (G) LNCaP and PC-3 cells were pre-treated with SKQ1 followed by DCEM1 treatment and analyzed for cell viability by MTT assay. (H) LNCaP and PC-3 cells were treated with either DCEM1 or H2O2 (200 μM) for 24 hours and total DNA were isolated and analyzed for mtDNA damage as described in materials and methods.
FIG. 7. […] (A) LNCaP and PC-3 cells were pre-treated with either rotenone or antimycin-A followed by DCEM1 treatment and mitochondrial ROS was analyzed as described in material and methods (data represented as fold change compared to control). In (A), the bars in each series from left to right are control, DCEM1, Rot+DCEM1, Anti A+DCEM1, Rot, and Anti A (B) ClpP protein was over-expressed in LNCaP and PC-3 cells followed by DCEM1 treatment and mitochondrial ROS was analyzed as described in material and methods (Data represented as fold change compared to control). […]

LNCaP and PC-3 cells [4] = assay: DEVDase (caspase) activity in cell lysates; conditions: 24 and 48 hours
Protocol: FIG. 6. Pharmacological inhibition of HSP60-ClpP interaction induces UPR^mt and PCa cell death. (A) Docking of DCEM1 into apical domain of HSP60. (B) LNCaP and PC-3 cells were treated with DCEM1 for 24 hours and HSP60-ClpP interaction was analyzed by co-immunoprecipitation assay. (C) LNCaP and PC-3 cells were treated with DCEM1 for 24 hours and mitoROS levels were analyzed by flow cytometry using mitoSOX dye. (D) LNCaP and PC-3 cells were treated with DCEM1 for 24 hours and poly-Ub protein levels were analyzed by western blotting. (E) LNCaP and PC-3 cells were treated with DCEM1 for 24 and 48 hours and apoptotic cell populations were analyzed by flow cytometry using Annexin V FITC/PI method as explained in materials and methods. […] (F) LNCaP and PC-3 cells were treated with DCEM1 for 24 and 48 hours and lysates were prepared and analyzed for DEVDase activity using specific peptide substrate. […] (G) LNCaP and PC-3 cells were pre-treated with SKQ1 followed by DCEM1 treatment and analyzed for cell viability by MTT assay. (H) LNCaP and PC-3 cells were treated with either DCEM1 or H2O2 (200 μM) for 24 hours and total DNA were isolated and analyzed for mtDNA damage as described in materials and methods.
FIG. 7. […] (C) ClpP protein was over-expressed in LNCaP and PC-3 cells followed by DCEM1 treatment and level of poly-ubiquitinated protein was analyzed by western blotting. […]

LNCaP and PC-3 cells [5] = assay: Cellular ATP level
Protocol: FIG. 7. Pharmacological inhibition of HSP60-ClpP interaction induces metabolic stress in PCa cells. (A) LNCaP and PC-3 cells were pre-treated with either rotenone or antimycin-A followed by DCEM1 treatment and mitochondrial ROS was analyzed as described in material and methods (data represented as fold change compared to control). In (A), the bars in each series from left to right are control, DCEM1, Rot+DCEM1, Anti A+DCEM1, Rot, and Anti A (B) ClpP protein was over-expressed in LNCaP and PC-3 cells followed by DCEM1 treatment and mitochondrial ROS was analyzed as described in material and methods (Data represented as fold change compared to control). […] (C) ClpP protein was over-expressed in LNCaP and PC-3 cells followed by DCEM1 treatment and level of poly-ubiquitinated protein was analyzed by western blotting. (D) ClpP protein was over-expressed in LNCaP and PC-3 cells followed by DCEM1 treatment and DEVDase activity was analyzed as described in material and methods (Data represented as fold change compared to control). […] (E) Mitochondrial membrane potential (mitoMP) was analyzed in LNCaP and PC-3 cells treated with DCEM1 as described in material and methods (Data represented as fold change compared to control). […] (F) ATP level was analyzed in LNCaP and PC-3 cells treated with DCEM1 as described in material and methods (Data represented as fold change compared to control). […]

PC-3 cells = assay: Protein expression of nuclear encoded OXPHOS subunits
LNCaP and PC-3 cells [6] = assay: AMPK and mTOR signaling pathways / autophagy activation; conditions: PCa cells
Protocol: FIG. 7. Pharmacological inhibition of HSP60-ClpP interaction induces metabolic stress in PCa cells. (A) LNCaP and PC-3 cells were pre-treated with either rotenone or antimycin-A followed by DCEM1 treatment and mitochondrial ROS was analyzed as described in material and methods (data represented as fold change compared to control). In (A), the bars in each series from left to right are control, DCEM1, Rot+DCEM1, Anti A+DCEM1, Rot, and Anti A (B) ClpP protein was over-expressed in LNCaP and PC-3 cells followed by DCEM1 treatment and mitochondrial ROS was analyzed as described in material and methods (Data represented as fold change compared to control). In (B), the bars in each series from left to right are DMSO and DCEM1. (C) ClpP protein was over-expressed in LNCaP and PC-3 cells followed by DCEM1 treatment and level of poly-ubiquitinated protein was analyzed by western blotting. (D) ClpP protein was over-expressed in LNCaP and PC-3 cells followed by DCEM1 treatment and DEVDase activity was analyzed as described in material and methods (Data represented as fold change compared to control). In (D), the bars in each series from left to right are DMSO and DCEM1. (E) Mitochondrial membrane potential (mitoMP) was analyzed in LNCaP and PC-3 cells treated with DCEM1 as described in material and methods (Data represented as fold change compared to control). In (E), the bars in each series from left to right are DMSO, 5, and 10. (F) ATP level was analyzed in LNCaP and PC-3 cells treated with DCEM1 as described in material and methods (Data represented as fold change compared to control). In (F), the bars in each series from left to right are 0, 5, 10, and 20. (G) Oxygen consumption rate was analyzed in PC-3 cells treated with DCEM1 as described in material and methods and represented as basal and maximal respiration rate; Spare respiratory capacity and ATP production potential. […]
Abrogation of HSP60-ClpP interaction by DCEM1 induces metabolic stress in PCa cells. […] Since ATP depletion/reduction induces autophagy, autophagy activation in PCa cells was analyzed in response to DCEM1 treatment.

T1 sequence (P10809 27-573): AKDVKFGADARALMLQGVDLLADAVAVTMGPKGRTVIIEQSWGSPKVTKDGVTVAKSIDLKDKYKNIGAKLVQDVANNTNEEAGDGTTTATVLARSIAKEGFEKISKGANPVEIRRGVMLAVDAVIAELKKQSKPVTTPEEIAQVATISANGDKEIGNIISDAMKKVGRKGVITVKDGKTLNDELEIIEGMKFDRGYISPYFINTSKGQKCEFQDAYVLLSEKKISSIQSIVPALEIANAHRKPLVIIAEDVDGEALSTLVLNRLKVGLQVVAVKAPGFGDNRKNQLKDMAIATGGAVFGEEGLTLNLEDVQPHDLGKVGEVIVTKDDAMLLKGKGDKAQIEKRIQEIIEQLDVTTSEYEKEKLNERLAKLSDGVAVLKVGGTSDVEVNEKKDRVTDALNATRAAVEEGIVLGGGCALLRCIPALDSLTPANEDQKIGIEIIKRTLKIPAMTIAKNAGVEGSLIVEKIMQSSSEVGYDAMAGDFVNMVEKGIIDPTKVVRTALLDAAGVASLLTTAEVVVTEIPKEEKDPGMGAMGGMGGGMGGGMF

CCOc1cc(CNCc2nc3ccccc3[nH]2)ccc1OCc1cccs1 [DCEM1]
HSP60-ClpP interaction by co-immunoprecipitation (HSP60-ClpP interaction [1]): inhibited HSP60-ClpP interactions in a dose dependent manner | HSP60-ClpP interaction by PLA (HSP60-ClpP interaction [2]): efficiently inhibited HSP60-ClpP interaction | DCEM1-induced mitoROS production and DEVDase activity with ClpP overexpression (LNCaP and PC-3 cells [3]; ClpP over-expressed in LNCaP and PC-3 cells followed by DCEM1): inhibited | mitoROS levels (LNCaP and PC-3 cells [3]; LNCaP and PC-3 cells, 24 hours): mitoROS upregulation | DCEM1-induced mitoROS production with inhibition of Complex I or III (LNCaP and PC-3 cells [3]; pre-treated with rotenone or antimycin-A followed by DCEM1): not attenuated | caspase (DEVDase) activity (LNCaP and PC-3 cells [4]): robust caspase activity | cellular ATP (LNCaP and PC-3 cells [5]): reduction of cellular ATP | nuclear encoded subunits of OXPHOS Complexes (PC-3 cells): downregulation of nuclear encoded subunits of OXPHOS Complexes | ULK1 phosphorylation (LNCaP and PC-3 cells [6]): enhanced phosphorylation at serine 555 residue and decreased phosphorylation at serine 757 residue | mTOR signaling (LNCaP and PC-3 cells [6]): inhibited mTOR signaling | p-AMPKa levels and LC3B cleavage (LNCaP and PC-3 cells [6]): Robust increase
